# Source: patent US20260345771A1, “THERAPY COMPRISING ANTI-CD19 ANTIBODY AND EZH2 MODULATORS” (Incyte Corporation, priority 2022, published 2026)
# B1: tafasitamab: humanized monoclonal antibody that targets the antigen CD19, engineered in the IgG Fc-region to enhance ADCC (antibody, chains of the INN, looked up)
# heavy: EVQLVESGGGLVKPGGSLKLSCAASGYTFTSYVMHWVRQAPGKGLEWIGYINPYNDGTKYNEKFQGRVTISSDKSISTAYMELSSLRSEDTAMYYCARGTYYYGTRVFDYWGQGTLVTVSSASTKGPSVFPLAPSSKSTSGGTAALGCLVKDYFPEPVTVSWNSGALTSGVHTFPAVLQSSGLYSLSSVVTVPSSSLGTQTYICNVNHKPSNTKVDKKVEPKSCDKTHTCPPCPAPELLGGPDVFLFPPKPKDTLMISRTPEVTCVVVDVSHEDPEVQFNWYVDGVEVHNAKTKPREEQFNSTFRVVSVLTVVHQDWLNGKEYKCKVSNKALPAPEEKTISKTKGQPREPQVYTLPPSREEMTKNQVSLTCLVKGFYPSDIAVEWESNGQPENNYKTTPPMLDSDGSFFLYSKLTVDKSRWQQGNVFSCSVMHEALHNHYTQKSLSLSPG
# light: DIVMTQSPATLSLSPGERATLSCRSSKSLQNVNGNTYLYWFQQKPGQSPQLLIYRMSNLNSGVPDRFSGSGSGTEFTLTISSLEPEDFAVYYCMQHLEYPITFGAGTKLEIKRTVAAPSVFIFPPSDEQLKSGTASVVCLLNNFYPREAKVQWKVDNALQSGNSQESVTEQDSKDSTYSLSSTLTLSKADYEKHKVYACEVTHQGLSSPVTKSFNRGEC
# Legend:
# SU-DHL-6 cells = assay: CellTiter-Glo (CTG) viability assay, SU-DHL-6; type: cell-based; conditions: Homo sapiens, 168 h; SU-DHL-6, 7 days, compound alone
# Experimental: (§1) A panel of 6 lymphoma cell lines was included in the analysis (5 DLBCL and 1 Burkitt lymphoma). All cell lines were cultured in RPMI 1640 medium (Gibco) supplemented with 10%-20% FCS (Sigma) at 37 °C in 5% CO2.
# (§2) To analyze direct cytotoxic and anti-proliferative effects on target cells, cell viability assays were performed using the CellTiter-Glo Kit (Promega), a luminescence assay for determination of viable cell number based on quantification of adenosine triphosphate (ATP) levels. […] Cell densities were adjusted at days 3 and 7 during the assay to avoid overgrowth. The assay was performed in clear 48- and 96-F-well bottom plates in a final volume of 1 mL or 200 μL, respectively, in a cell incubator at 37 °C and 5% CO2. In each experiment, all test conditions were performed in triplicates.
# (§3) Cell viability was analyzed according to the manufacturer's protocol using the Tecan Infinite F500 plate reader. The relative viable cell count was calculated from the measured relative luminescence units (RLU) with the following equation: […]
# (§4) For graphical illustration and IC50 determination, the mean values of triplicates (viability assay) or duplicates (CD19 expression) of the individual experiments were imported into GraphPad Prism software (version 8). […] IC50 curves were determined applying a non-linear regression curve fit model (sigmoidal dose response, variable slope).
# SU-DHL-4 cells = assay: CellTiter-Glo (CTG) viability assay, SU-DHL-4; type: cell-based; conditions: Homo sapiens, SU-DHL-4, 168 h
# Experimental: as §1, §2, §3, §4
# WSU-DLCL2 tumor = assay: Tumor growth in WSU-DLCL2 tumor bearing CB17-SCID mice; type: in vivo
# Experimental: The in vivo study was carried out in WSU-DLCL2 tumor bearing CB17-SCID mice. 4×10^6 WSU-DLCL2 cells (DLBCL cell line) per animal were implanted with matrigel (1:1) s.c. into the left flank of 6-8 weeks old female CB17-SCID mice. On study day 17, when a mean tumor volume of approximately 100 mm^3 was reached, animals were randomly allocated into treatment groups with 8 mice per group and treatment was started. Treatment was applied every day p.o. at 35 mg/kg or 50 mg/kg for Compound 1 (application volume: 10 mL/kg; formulation buffer: 20% propylene glycol, 10% Solutol HS15, 70% phthalate buffer) and biweekly i.v. at 3 mg/kg or 10 mg/kg for tafasitamab (application volume: 5 mL/kg; formulation buffer: PBS). Tumor volume and body weight were measured twice weekly. Mice were sacrificed when reaching a tumor volume >1500 mm^3 or latest at study end on day 69 after tumor cell implantation. Mean tumor growth curves were calculated using GraphPad Prism software (version 8.4.3).
# The proof of concept in vivo study was performed in WSU-DLCL2 tumor bearing CB17-SCID mice.
molecule,measurement,setting,value
COC1CN([C@H]2CC[C@H]([C@@]3(C)Oc4c(Cl)cc(C(=O)NCc5c(SC)cc(C)[nH]c5=O)c(C)c4O3)CC2)C1 [Compound 1],IC50,SU-DHL-6 cells,3.8 nM
same,IC50,SU-DHL-4 cells,17.1 nM
B1,tumor growth inhibition,WSU-DLCL2 tumor; monotherapy 3 mg/kg i.v. BIW,did not reveal any tumor growth inhibition
same,tumor growth inhibition,WSU-DLCL2 tumor; monotherapy 10 mg/kg i.v. BIW,did not reveal any tumor growth inhibition
